According to patent publication US7473682B2, “Angiogenic peptides and uses thereof” (Ramot at Tel Aviv University Ltd., priority 2003, dated 2009):

Assays:
[1] = tested on: ears of nude mice and Balb/C mice; experiment: In vivo angiogenesis in a mouse-ear model; conditions: for Number of blood vessels: 5 days after inoculation
Experimental: In Wivo angiogenesis in a mouse-ear model—Ear angiogenesis studies were a modification of an approach described previously (Pettersson, 2000). […] Contralateral ears were injected only with PBS. […] Two days after peptide inoculation, angiogenic effect of peptides could be observed.
Histological sections—Histological sections of the mouse-ears injected with the angiogenic peptides were performed by fixing tissues in 4% buffered formalin. Sections were embedded in paraffin blocks sectioned in 4 μm thick layers and stained with hematoxolin-eosin.

mouse ischemic hind limb [2] = experiment: Mouse ischemic hind limb model, blood perfusion (Laser Doppler Imager); assay type: in vivo; conditions: 14 and 19 days following peptide injection, 10 μg
Experimental: (§1) Mouse ischemic hind limb model—Ischemia was created in the mouse left hind limb by ligation of the femoral artery. The right hind limb served as control. A day after the operation each of the peptides was injected into one site close to the ligation and one site distal to the ligation. Each mouse was treated with each of the peptides in a total amount of 10 μg.
Blood perfusion in ischemic mice—The percent of blood perfusion was measured using a Laser Doppler Imager (PeriMed, Sweden) at 14 and 19 days after peptides injections. The average percent perfusion of each limb was computed and expressed as the ischemic (left)/control (right) blood perfusion ratio.

mouse ischemic hind limb [3] = experiment: Mouse ischemic hind limb model, physiological observations (ladder climbing); assay type: in vivo; parameters: key: 1 = walk and climb ... 4 = walk with difficulty, cannot climb; conditions: mean score of 10 mice, 10 μg
Experimental: as §1
Physiological observations—Ischemic mice were evaluated for their ability to climb a ladder on day 1, 4, 7, and 10-post operation. The scoring system was as follows: 1—walk and climb; 2—walk and climb with some difficulty, 3—walk and cannot climb the ladder; 4—walk with difficulties and cannot climb the ladder.

Substance | Number of blood vessels ([1]; 3 ng/ear) | Peptide/PBS = ratio between the No. of blood vessels in the peptide-injected ear and in the PBS-injected ear ([1]; mouse ears, contralateral ear PBS) | The blood perfusion ratio (in percentages) of the ischemic vs. control limbs, Mean (mouse ischemic hind limb [2]) [percentages] | Physiological score (ability to climb a ladder) Day 1 (mouse ischemic hind limb [3]; 1 = walk and climb ... 4 = walk with difficulties and cannot climb, day 1 post operation) | Physiological score (ability to climb a ladder) Day 4 (mouse ischemic hind limb [3]; scale 1-4, day 4 post operation) | Physiological score (ability to climb a ladder) Day 7 (mouse ischemic hind limb [3]; scale 1-4, day 7 post operation) | Physiological score (ability to climb a ladder) Day 10 (mouse ischemic hind limb [3]; scale 1-4, day 10 post operation) | Number of blood vessels ([1]; 10 ng/ear) | Number of blood vessels in the ears of injected mice (photographs) ([1]; VEGF, 100 ng/mouse ear (FIG. 19a))
FGF: positive control, the angiogenic molecule FGF [reference compound] | 11 | 2.08 | 93.438 | 2.57 | 2 | 1 | 1 | – | –
VEGF [reference compound] | – | – | – | – | – | – | – | 17 | increased number of blood vessels
